Details: Liquid

ClCCCCCCCl [1,6-dichlorohexane]
mass density [kg/m3]
Details | 288.15 K | 298.15 K | 308.15 K | 318.15 K
100 kPa | 1073.7 | 1063.8 | 1054.6 | 1045.1
500 kPa | 1073.9 | 1064.2 | 1054.9 | 1045.3
1000 kPa | 1074.3 | 1064.4 | 1055.2 | 1045.7
1500 kPa | – | 1064.8 | 1055.5 | 1046.2
1600 kPa | 1074.6 | – | – | –
2000 kPa | 1075 | 1065.2 | 1055.9 | 1046.6
2500 kPa | 1075.3 | 1065.5 | 1056.3 | 1046.9
3100 kPa | 1075.7 | 1065.9 | 1056.7 | 1047.4
3600 kPa | 1076 | 1066.3 | 1057.1 | 1047.8
4100 kPa | 1076.3 | 1066.7 | 1057.4 | 1048.1
4500 kPa | – | 1066.9 | – | –
4600 kPa | 1076.6 | – | 1057.8 | 1048.4
5000 kPa | – | 1067.3 | – | –
5100 kPa | 1076.9 | – | 1058.2 | 1048.9
5600 kPa | 1077.3 | 1067.6 | 1058.5 | 1049.2
6100 kPa | 1077.6 | 1068 | 1058.9 | 1049.7
6500 kPa | 1077.9 | – | – | –
6600 kPa | – | 1068.4 | 1059.2 | 1050
7100 kPa | 1078.3 | 1068.7 | 1059.6 | 1050.4
7600 kPa | 1078.5 | 1069 | 1059.8 | 1050.7
8100 kPa | 1078.9 | 1069.4 | 1060.2 | 1051.2
8500 kPa | – | – | – | 1051.4
8600 kPa | 1079.2 | 1069.7 | 1060.6 | –
9100 kPa | 1079.5 | – | – | 1051.8
9200 kPa | – | 1070.1 | 1061 | –
9600 kPa | 1079.9 | 1070.4 | 1061.4 | 1052.2
10100 kPa | 1080.2 | 1070.7 | 1061.7 | 1052.6
10600 kPa | 1080.5 | 1071.1 | 1062.1 | –
10700 kPa | – | – | – | 1053.1
11000 kPa | – | 1071.3 | – | –
11100 kPa | 1080.8 | – | 1062.4 | 1053.6
11600 kPa | 1081.2 | – | 1062.7 | 1053.9
11700 kPa | – | 1071.7 | – | –
12100 kPa | 1081.5 | 1071.9 | 1063.1 | 1054.1
12600 kPa | 1081.8 | 1072.3 | 1063.5 | 1054.5
13100 kPa | 1082.1 | 1072.6 | 1063.8 | 1054.8
13600 kPa | 1082.4 | 1072.9 | 1064.1 | 1055.3
14100 kPa | – | – | 1064.5 | –
14200 kPa | 1082.8 | 1073.3 | – | 1055.6
14700 kPa | 1083 | 1073.6 | – | 1056
14800 kPa | – | – | 1064.9 | –
15100 kPa | – | – | 1065.1 | –
15200 kPa | 1083.4 | 1074 | – | 1056.3
15600 kPa | – | – | – | 1056.6
15700 kPa | 1083.7 | 1074.3 | 1065.5 | –
16200 kPa | – | – | 1065.8 | –
16300 kPa | 1084 | – | – | 1057.1
16400 kPa | – | 1074.8 | – | –
16700 kPa | – | – | 1066.2 | –
16800 kPa | 1084.3 | 1075.2 | – | 1057.3
17300 kPa | 1084.6 | 1075.5 | 1066.6 | 1057.7
17800 kPa | 1084.9 | 1075.8 | 1066.9 | 1058
18300 kPa | 1085.3 | 1076.1 | 1067.2 | 1058.3
18700 kPa | – | 1076.4 | 1067.4 | –
18800 kPa | 1085.5 | – | – | –
18900 kPa | – | – | – | 1058.8
19200 kPa | 1085.7 | 1076.7 | 1067.8 | 1059
19700 kPa | 1086 | 1076.9 | 1068 | 1059.3
20200 kPa | 1086.5 | 1077.3 | – | 1059.6
20300 kPa | – | – | 1068.5 | –

From the NIST ThermoML archive (doi:10.1021/je700339f)
